# Values joined by “and” are separate entries in the source; they are usually repeats but may differ in a detail not shown here. Identical values can stand only once. Like-named read-outs stand apart in the source and are kept apart here.
# Assays:
# [1] = tested on: cervical carcinoma (HeLa); assay: MTT cytotoxicity assay, HeLa; conditions: for SI HeLa: IC50 WI-38 / IC50 HeLa; for IC50: read-out: IC50 HeLa, MTT, mean ± SD of three measurements
# EGFRWT = EGFRWT (Homo sapiens, UniProt P00533); assay: HTRF enzyme inhibitory assay, EGFR WT
# liver carcinoma (HepG-2) = assay: MTT cytotoxicity assay, HepG-2; conditions: for SI HepG-2: IC50 WI-38 / IC50 HepG-2; for IC50: read-out: IC50 HepG-2, MTT, mean ± SD of three measurements
# EGFRT790M [2] = biological target: T1, EGFRT790M (Homo sapiens, UniProt P00533, T790M)
# HeLa, HepG-2, and MCF-7 = assay: MTT cytotoxicity, range over the cancer cell panel; conditions: read-out: IC50 across HeLa, HepG-2 and MCF-7; range over all examined cancer cell lines
# mutant EGFRL858R [3] = biological target: T2, mutant EGFRL858R (Homo sapiens, UniProt P00533, L858R); conditions: for Fold-Change L858R/WT: potency relative to wild-type EGFR
# mutant EGFRL858R [4] = biological target: T2, mutant EGFRL858R; assay: biochemical
# EGFRT790M [5] = biological target: T1, EGFRT790M; assay: biochemical
# in vitro = conditions: human, WI-38 normal lung fibroblast cells
# breast carcinoma (MCF-7) = assay: MTT cytotoxicity assay, MCF-7; conditions: for SI MCF-7: IC50 WI-38 / IC50 MCF-7; for IC50: read-out: IC50 MCF-7, MTT, mean ± SD of three measurements
# P. aeruginosa ATCC10145 [6] = assay: Well diffusion inhibition zone, P. aeruginosa; conditions: Pseudomonas aeruginosa, ATCC10145, read-out: Inhibition zone P. aeruginosa ATCC10145
# E. coli ATCC25915 = assay: MIC, two-fold serial dilution, E. coli; type: cell-based; conditions: Escherichia coli
# P. aeruginosa ATCC10145 [7] = assay: MIC, two-fold serial dilution, P. aeruginosa; type: cell-based; conditions: Pseudomonas aeruginosa
# E. faecalis ATCC29212 [8] = assay: Well diffusion inhibition zone, E. faecalis; conditions: Enterococcus faecalis, ATCC29212, read-out: Inhibition zone E. faecalis ATCC29212
# E.coli ATCC25915 = assay: Well diffusion inhibition zone, E. coli; conditions: Escherichia coli, ATCC25915, read-out: Inhibition zone E.coli ATCC25915
# S. aureus ATCC25923 [9] = assay: MIC, two-fold serial dilution, S. aureus; type: cell-based, Staphylococcus aureus; conditions: for MIC: Staphylococcus aureus, ATCC25923
# E. faecalis ATCC29212 [10] = assay: MIC, two-fold serial dilution, E. faecalis; type: cell-based, Enterococcus faecalis; conditions: for MIC: Enterococcus faecalis, ATCC29212
# MCF-7 cells [11] = assay: Wound healing (scratch) assay; type: cell-based, human
# MCF-7 cells [12] = assay: Cell cycle analysis by flow cytometry; type: cell-based, human; conditions: MCF-7, 48 h incubation
# MCF-7 cells [13] = assay: Annexin V-FITC/PI apoptosis analysis; type: cell-based, human; conditions: MCF-7, 48 h
# S. aureus ATCC25923 [14] = assay: Well diffusion inhibition zone, S. aureus; conditions: Staphylococcus aureus, ATCC25923, read-out: Inhibition zone S. aureus ATCC25923
# Chain of EGFRWT (P00533 25-1210): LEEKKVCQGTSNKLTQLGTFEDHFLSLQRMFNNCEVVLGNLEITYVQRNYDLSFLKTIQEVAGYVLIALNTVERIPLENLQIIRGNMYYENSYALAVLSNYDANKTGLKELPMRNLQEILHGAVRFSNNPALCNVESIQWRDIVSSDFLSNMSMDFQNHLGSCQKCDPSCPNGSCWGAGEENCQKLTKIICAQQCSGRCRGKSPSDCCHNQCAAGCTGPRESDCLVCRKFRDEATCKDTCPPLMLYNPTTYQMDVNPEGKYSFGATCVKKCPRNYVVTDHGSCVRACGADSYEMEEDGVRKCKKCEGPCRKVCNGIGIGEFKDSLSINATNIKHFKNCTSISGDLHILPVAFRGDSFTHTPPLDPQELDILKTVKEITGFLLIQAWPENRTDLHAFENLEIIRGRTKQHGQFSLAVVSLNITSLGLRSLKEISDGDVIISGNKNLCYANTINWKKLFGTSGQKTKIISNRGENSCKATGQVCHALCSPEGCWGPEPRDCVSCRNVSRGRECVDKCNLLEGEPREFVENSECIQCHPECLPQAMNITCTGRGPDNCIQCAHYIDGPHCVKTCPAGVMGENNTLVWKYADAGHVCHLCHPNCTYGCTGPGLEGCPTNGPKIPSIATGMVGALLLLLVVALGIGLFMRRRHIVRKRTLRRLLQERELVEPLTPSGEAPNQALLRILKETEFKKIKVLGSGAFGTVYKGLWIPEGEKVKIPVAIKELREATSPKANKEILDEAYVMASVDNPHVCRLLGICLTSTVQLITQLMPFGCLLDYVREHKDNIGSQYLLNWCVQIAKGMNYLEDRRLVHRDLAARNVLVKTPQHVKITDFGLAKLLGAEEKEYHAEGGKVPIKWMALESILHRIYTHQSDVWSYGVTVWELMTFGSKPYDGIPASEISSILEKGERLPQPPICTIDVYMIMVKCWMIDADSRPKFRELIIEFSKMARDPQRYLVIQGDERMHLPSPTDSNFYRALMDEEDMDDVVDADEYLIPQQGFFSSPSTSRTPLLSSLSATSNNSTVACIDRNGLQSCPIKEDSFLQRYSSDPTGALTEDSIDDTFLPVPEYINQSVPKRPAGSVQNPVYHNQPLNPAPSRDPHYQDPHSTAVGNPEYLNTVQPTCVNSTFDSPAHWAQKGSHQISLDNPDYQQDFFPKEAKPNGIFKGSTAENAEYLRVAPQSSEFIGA
# T1 sequence (P00533 25-1210 T790M): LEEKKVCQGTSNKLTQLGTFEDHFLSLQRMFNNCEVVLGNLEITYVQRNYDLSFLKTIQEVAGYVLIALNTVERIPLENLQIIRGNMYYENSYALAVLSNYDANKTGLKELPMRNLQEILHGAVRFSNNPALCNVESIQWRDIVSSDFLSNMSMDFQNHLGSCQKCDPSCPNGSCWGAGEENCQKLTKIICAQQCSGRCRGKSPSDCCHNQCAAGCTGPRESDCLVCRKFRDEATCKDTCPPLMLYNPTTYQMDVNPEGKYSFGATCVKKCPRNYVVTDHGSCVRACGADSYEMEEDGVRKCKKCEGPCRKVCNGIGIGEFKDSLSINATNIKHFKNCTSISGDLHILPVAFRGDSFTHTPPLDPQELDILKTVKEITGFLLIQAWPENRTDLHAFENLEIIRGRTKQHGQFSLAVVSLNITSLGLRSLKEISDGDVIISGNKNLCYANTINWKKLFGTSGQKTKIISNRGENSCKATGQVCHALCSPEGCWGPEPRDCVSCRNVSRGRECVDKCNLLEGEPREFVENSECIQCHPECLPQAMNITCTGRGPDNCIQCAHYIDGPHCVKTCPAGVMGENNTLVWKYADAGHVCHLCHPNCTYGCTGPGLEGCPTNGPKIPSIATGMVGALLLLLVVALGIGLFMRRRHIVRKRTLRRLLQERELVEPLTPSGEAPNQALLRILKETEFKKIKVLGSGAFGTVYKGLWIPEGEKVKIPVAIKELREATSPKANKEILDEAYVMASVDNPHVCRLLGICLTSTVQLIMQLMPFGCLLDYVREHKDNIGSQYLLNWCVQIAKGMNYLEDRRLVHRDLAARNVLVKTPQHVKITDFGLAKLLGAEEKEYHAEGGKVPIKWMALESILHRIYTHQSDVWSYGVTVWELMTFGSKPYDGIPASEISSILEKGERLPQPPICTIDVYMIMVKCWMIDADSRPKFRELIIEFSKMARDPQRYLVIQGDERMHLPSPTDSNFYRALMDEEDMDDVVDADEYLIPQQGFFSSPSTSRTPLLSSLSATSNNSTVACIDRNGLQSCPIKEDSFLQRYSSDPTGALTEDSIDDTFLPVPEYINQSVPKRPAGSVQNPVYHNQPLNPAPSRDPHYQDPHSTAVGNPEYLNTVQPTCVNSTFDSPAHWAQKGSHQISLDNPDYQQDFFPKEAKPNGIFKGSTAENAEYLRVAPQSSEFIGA
# T2 sequence (P00533 25-1210 L858R): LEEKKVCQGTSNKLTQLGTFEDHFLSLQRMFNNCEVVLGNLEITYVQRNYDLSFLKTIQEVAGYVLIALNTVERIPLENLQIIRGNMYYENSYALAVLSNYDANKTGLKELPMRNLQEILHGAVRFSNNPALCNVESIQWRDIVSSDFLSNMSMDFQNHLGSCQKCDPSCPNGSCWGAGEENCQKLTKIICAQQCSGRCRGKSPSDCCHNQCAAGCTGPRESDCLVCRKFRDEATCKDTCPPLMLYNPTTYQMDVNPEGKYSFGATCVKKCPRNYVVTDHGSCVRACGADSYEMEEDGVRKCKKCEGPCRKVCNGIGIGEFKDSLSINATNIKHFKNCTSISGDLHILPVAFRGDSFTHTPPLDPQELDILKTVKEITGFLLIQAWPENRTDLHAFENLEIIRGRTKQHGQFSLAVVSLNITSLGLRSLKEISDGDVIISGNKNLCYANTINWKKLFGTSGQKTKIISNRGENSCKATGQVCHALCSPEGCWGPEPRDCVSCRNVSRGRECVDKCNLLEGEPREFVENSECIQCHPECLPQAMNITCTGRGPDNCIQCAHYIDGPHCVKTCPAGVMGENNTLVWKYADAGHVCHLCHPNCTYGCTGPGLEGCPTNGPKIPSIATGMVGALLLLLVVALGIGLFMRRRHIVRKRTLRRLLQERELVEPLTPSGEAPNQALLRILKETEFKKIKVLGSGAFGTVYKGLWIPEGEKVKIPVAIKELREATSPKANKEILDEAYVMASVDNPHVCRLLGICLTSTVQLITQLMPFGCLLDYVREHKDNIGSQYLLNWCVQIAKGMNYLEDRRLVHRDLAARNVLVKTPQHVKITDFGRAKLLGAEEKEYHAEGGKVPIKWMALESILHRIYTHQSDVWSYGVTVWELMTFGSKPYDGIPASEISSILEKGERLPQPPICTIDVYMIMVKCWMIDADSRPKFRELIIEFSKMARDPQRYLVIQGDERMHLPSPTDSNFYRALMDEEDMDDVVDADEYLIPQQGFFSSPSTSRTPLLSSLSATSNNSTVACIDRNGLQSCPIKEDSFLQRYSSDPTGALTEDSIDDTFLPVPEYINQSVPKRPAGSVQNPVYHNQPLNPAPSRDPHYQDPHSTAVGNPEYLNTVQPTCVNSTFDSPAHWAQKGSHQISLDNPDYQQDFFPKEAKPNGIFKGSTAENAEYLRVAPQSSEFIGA
smiles,measurement,setting,value
"Cn1c(=O)c2c(-c3ccc(Cl)cc3)c(C(=O)NN)c(N)nc2n(C)c1=O [Compound 2, 7-Amino-5-(4-chlorophenyl)-1,3-dimethyl-2,4-dioxo-1,2,3,4-tetrahydropyrido[2,3-d]pyrimidine 6-carbohydrazide]",SI HeLa,[1],8.6
same,IC50,[1],7.54 ± 0.7 µM
same,IC50,EGFRWT,212 ± 7 nM
same,%inh EGFR WT,EGFRWT; conc 0.01,24.6%
same,%inh EGFR WT,EGFRWT; conc 0.1,42.5%
same,%inh EGFR WT,EGFRWT; conc 1,67.1%
same,%inh EGFR WT,EGFRWT; conc 10,81.4%
same,%inh EGFR WT,EGFRWT; conc 100,94.6%
same,SI HepG-2,liver carcinoma (HepG-2),4.95
same,IC50,liver carcinoma (HepG-2),12.9 ± 1 µM
same,Fold-Change T790M/WT,EGFRT790M [2]; potency relative to wild-type EGFR,4.03×
same,IC50,"HeLa, HepG-2, and MCF-7",7.54 to 12.9 µM
same,%inh EGFR_L858R,mutant EGFRL858R [3]; conc 0.01,6.07%
same,%inh EGFR_L858R,mutant EGFRL858R [3]; conc 0.1,19%
same,%inh EGFR_L858R,mutant EGFRL858R [3]; conc 1,43.5%
same,%inh EGFR_L858R,mutant EGFRL858R [3]; conc 10,68.3%
same,%inh EGFR_L858R,mutant EGFRL858R [3]; conc 100,90.7%
same,Fold-Change L858R/WT,mutant EGFRL858R [3],7.5 × and 7.56×
same,IC50,mutant EGFRL858R [4],1600 ± 50 nM
same,IC50,EGFRT790M [5],854 ± 27 nM
same,IC50 at 48 h,in vitro,64.1 ± 3.5 µM
same,SI MCF-7,breast carcinoma (MCF-7),7.44
same,IC50,breast carcinoma (MCF-7),8.61 ± 0.6 µM
"Cn1c(=O)c2c(-c3ccc(Cl)cc3)c(C3=NN=C4N=CN=C(N)C43)c(N)nc2n(C)c1=O (centres unmarked) [Compound 12, 7-Amino-6-(4-amino-3aH-pyrazolo [3,4-d]pyrimidin-3-yl)-5-(4-chlorophenyl)-1,3-dimethylpyrido[2,3-d]pyrimidine-2,4(1H,3H)-dione]",zone of inhibition at 100 µg/mL,P. aeruginosa ATCC10145 [6],10.5 mm
same,SI HeLa,[1],0.41
same,IC50,[1],44.2 ± 2.6 µM
same,MIC,E. coli ATCC25915,50 µg/mL
same,MIC,P. aeruginosa ATCC10145 [7],50 µg/mL
same,zone of inhibition at 100 µg/mL,E. faecalis ATCC29212 [8],2 ± 0.05 mm
same,SI HepG-2,liver carcinoma (HepG-2),0.33
same,IC50,liver carcinoma (HepG-2),54.3 ± 3.2 µM
same,%inh EGFR_T790M,EGFRT790M [2]; conc 0.01,6.2%
same,%inh EGFR_T790M,EGFRT790M [2]; conc 0.1,29.8%
same,%inh EGFR_T790M,EGFRT790M [2]; conc 1,52.9%
same,%inh EGFR_T790M,EGFRT790M [2]; conc 10,75.1%
same,%inh EGFR_T790M,EGFRT790M [2]; conc 100,93.5%
same,zone of inhibition at 100 µg/mL,E.coli ATCC25915,10.4 ± 0.08 mm
same,MIC S. aureus ATCC25923,S. aureus ATCC25923 [9],>100 µg/mL
same,MIC,S. aureus ATCC25923 [9],> 100 µg/mL
same,IC50 at 48 h,in vitro,18.2 ± 1.4 µM
same,MIC,E. faecalis ATCC29212 [10],100 µg/mL
same,SI MCF-7,breast carcinoma (MCF-7),0.31
same,IC50,breast carcinoma (MCF-7),58.8 ± 3.3 µM
"CCOC(=O)c1c(N)nc2c(c1-c1ccc(Cl)cc1)c(=O)n(C)c(=O)n2C [Compound 1, Ethyl 7-amino-5-(4-chlorophenyl)-1,3-dimethyl-2,4-dioxo-1,2,3,4-tetrahydropyrido[2,3-d]pyrimidine-6-carboxylate]",zone of inhibition at 100 µg/mL,P. aeruginosa ATCC10145 [6],10.5 ± 0.05 mm
same,SI HeLa,[1],12.98
same,IC50,[1],6.29 ± 0.5 µM
same,MIC,E. coli ATCC25915,50 µg/mL
same,MIC,P. aeruginosa ATCC10145 [7],50 µg/mL
same,zone of inhibition at 100 µg/mL,E. faecalis ATCC29212 [8],2 ± 0.05 mm
same,IC50,EGFRWT,93 ± 3 nM
same,%inh EGFR WT,EGFRWT; conc 0.01,29.6%
same,%inh EGFR WT,EGFRWT; conc 0.1,51%
same,%inh EGFR WT,EGFRWT; conc 1,74.5%
same,%inh EGFR WT,EGFRWT; conc 10,85.3%
same,%inh EGFR WT,EGFRWT; conc 100,96.1%
same,SI HepG-2,liver carcinoma (HepG-2),13.83
same,IC50,liver carcinoma (HepG-2),5.9 ± 0.3 µM
same,%inh EGFR_T790M,EGFRT790M [2]; conc 0.01,22.1%
same,%inh EGFR_T790M,EGFRT790M [2]; conc 0.1,51.1%
same,%inh EGFR_T790M,EGFRT790M [2]; conc 1,66.5%
same,%inh EGFR_T790M,EGFRT790M [2]; conc 10,82.2%
same,%inh EGFR_T790M,EGFRT790M [2]; conc 100,96.1%
same,IC50,"HeLa, HepG-2, and MCF-7",3.98 to 6.29 µM
same,Length of migration,"MCF-7 cells [11]; MCF-7, 72 h",0.31–0.32 mm
same,Migrated cells area,"MCF-7 cells [11]; MCF-7, 72 h",0.564 mm^2
same,Length of migration,"MCF-7 cells [11]; MCF-7, 72 h, listed as U1",0.31 mm
same,% Closure (wound closure),"MCF-7 cells [11]; MCF-7, after 72 h",69.63% and 69.63 ± 2.57%
same,%inh EGFR_L858R,mutant EGFRL858R [3]; conc 0.01,9.88%
same,%inh EGFR_L858R,mutant EGFRL858R [3]; conc 0.1,23.7%
same,%inh EGFR_L858R,mutant EGFRL858R [3]; conc 1,40%
same,%inh EGFR_L858R,mutant EGFRL858R [3]; conc 10,75.6%
same,%inh EGFR_L858R,mutant EGFRL858R [3]; conc 100,93.7%
same,Fold-Change L858R/WT,mutant EGFRL858R [3],12 × and 12.44×
same,%G0-G1,MCF-7 cells [12],74.86%
same,%G2/M,MCF-7 cells [12],1.75%
same,%S,MCF-7 cells [12],22.79%
same,IC50,mutant EGFRL858R [4],1160 ± 36 nM
same,zone of inhibition at 100 µg/mL,E.coli ATCC25915,9.5 ± 0.12 mm
same,MIC,S. aureus ATCC25923 [9],100 µg/mL
same,IC50,EGFRT790M [5],174 ± 6 nM
same,IC50 at 48 h,in vitro,81.7 ± 4.1 µM
same,Apoptosis Early,MCF-7 cells [13],5.86%
same,Apoptosis Late,MCF-7 cells [13],16.62%
same,Apoptosis Total,MCF-7 cells [13],26.37%
same,Necrosis,MCF-7 cells [13],3.89%
same,MIC,E. faecalis ATCC29212 [10],100 µg/mL
same,SI MCF-7,breast carcinoma (MCF-7),20.51
same,IC50,breast carcinoma (MCF-7),3.98 ± 0.2 µM
"CC1=NN(C(=S)NC(=O)c2c(N)nc3c(c2-c2ccc(Cl)cc2)c(=O)n(C)c(=O)n3C)C(=O)C1 [Compound 16, 7-Amino-5-(4-chlorophenyl)-1,3-dimethyl-N-(3-methyl-5-oxo-4,5-dihydro-1H-pyrazole-1-carbonothioyl)-2,4-dioxo-1,2,3,4-tetrahydropyrido[2,3-d]pyrimidine-6-carboxamide]",zone of inhibition at 100 µg/mL,P. aeruginosa ATCC10145 [6],17.6 mm
same,SI HeLa,[1],1.65
same,IC50,[1],34.8 ± 2.1 µM
same,MIC,E. coli ATCC25915,50 µg/mL
same,zone of inhibition at 100 µg/mL,E. faecalis ATCC29212 [8],4 ± 0.6 mm
same,SI HepG-2,liver carcinoma (HepG-2),0.88
same,IC50,liver carcinoma (HepG-2),65.1 ± 3.4 µM
same,zone of inhibition at 100 µg/mL,S. aureus ATCC25923 [14],4.5 ± 0.1 mm
same,IC50,"HeLa, HepG-2, and MCF-7",35 to 65 µM
same,zone of inhibition at 100 µg/mL,E.coli ATCC25915,18.5 ± 0.15 mm
same,MIC,S. aureus ATCC25923 [9],100 µg/mL
same,IC50 at 48 h,in vitro,57.6 ± 3.2 µM
same,MIC,E. faecalis ATCC29212 [10],100 µg/mL
same,SI MCF-7,breast carcinoma (MCF-7),1.34
same,IC50,breast carcinoma (MCF-7),42.9 ± 2.5 µM
"Cc1cc(C)n(-c2c[nH]nc2NC(=O)c2c(N)nc3c(c2-c2ccc(Cl)cc2)c(=O)n(C)c(=O)n3C)n1 [Compound 13, 7-Amino-5-(4-chlorophenyl)-N-(3,5-dimethyl-1′H-[1,4′-bipyrazol]-3′-yl)-1,3-dimethyl-2,4-dioxo-1,2,3,4-tetrahydropyrido[2,3-d]pyrimidine-6-carboxamide]",zone of inhibition at 100 µg/mL,P. aeruginosa ATCC10145 [6],16.8 mm
same,SI HeLa,[1],0.37
same,IC50,[1],28.7 ± 1.9 µM
same,MIC,E. coli ATCC25915,50 µg/mL
same,MIC,P. aeruginosa ATCC10145 [7],100 µg/mL
same,SI HepG-2,liver carcinoma (HepG-2),0.32
same,IC50,liver carcinoma (HepG-2),32.6 ± 2.1 µM
same,IC50,"HeLa, HepG-2, and MCF-7",28 to 36 µM
same,zone of inhibition at 100 µg/mL,E.coli ATCC25915,14.5 ± 0.15 mm
same,MIC S. aureus ATCC25923,S. aureus ATCC25923 [9],>100 µg/mL
same,MIC,S. aureus ATCC25923 [9],> 100 µg/mL
same,IC50 at 48 h,in vitro,10.7 ± 0.8 µM
same,MIC E. faecalis ATCC29212,E. faecalis ATCC29212 [10],>100 µg/mL
same,MIC,E. faecalis ATCC29212 [10],> 100 µg/mL
same,SI MCF-7,breast carcinoma (MCF-7),0.29
same,IC50,breast carcinoma (MCF-7),36.1 ± 2.2 µM

# Reference: PMC12567244, “Innovative Amino-Functionalization of Pyrido[2,3-d]pyrimidine Scaffolds for Broad Therapeutic Applications Supported by Computational Analyses” (Pharmaceuticals, 2025)
